Results as given in patent US20260374766A1, “METHODS FOR TREATING CANCER” (Antares Therapeutics, Inc., priority 2022, published 2026).
Where two headings read alike, the source gives them in different places.

Assays:
[1] = biological target: T1, p53 Y220C mutant protein (amino acid residues 94-293) (Homo sapiens, UniProt P04637, Y220C); experiment: Surface Plasmon Resonance (SPR) assay, Kd_kinetic; assay type: binding
T1 construct: p53 Y220C mutant protein (amino acid residues 94-293)
Method in brief: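 Binding measured by SPR on a Biacore 8K in running buffer of 50 mM Tris pH 7.5, 100 mM NaCl, 1 mM DTT, 0.01% Brij35, 0.05% Tween-20, 1% DMSO.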

[2] = biological target: T1, p53 Y220C mutant protein (amino acid residues 94-293); experiment: Thermal Shift Assay (TSA), dTM; assay type: binding; details: for ΔTm at 10 µM: 10 uM compound; for ΔTm at 100 µM: 100 uM compound
Method in brief: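 TM is derived by fitting Sypro Orange melt curves (30 °C to 50 °C, 0.03 °C/second) to a Boltzmann two-state model. Beforehand, 5 μM p53 Y220C (94-293) sits with 10 μM or 100 μM compound for 3 hours at 20 °C in HEPES pH7.4 buffer containing 100 mM NaCl and 1% DMSO.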

p53 Y220C = p53 Y220C (Homo sapiens, UniProt P04637, Y220C); experiment: Luciferase Reporter Assay (Luc), p53 response element, NClH1299 cells with inducible p53 Y220C; assay type: cell-based
Method in brief: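 Doxycycline (0.5 ug/mL, 24 h) induces the mutant before a 6-hour compound treatment. Reporter activity is then quantified by One-Glo luminescence.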

NUGC3 p53 Y220C = experiment: Cell Proliferation Assay (CellTiter-Glo, CTG), NUGC3 p53 Y220C; assay type: cell-based; details: Homo sapiens, NUGC-3, 120 h, CellTiter-Glo, 5 days
Method in brief: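 NClH1299 lines stably transduced with Tet-inducible p53 Y220C or R273H, plus NUGC3, were treated with compound for 5 days at 250-500 cells/well. IC50 derived from CellTiter-Glo luminescent signal after 10 min room-temperature incubation.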

H1299 p53 Y220C = experiment: Cell Proliferation Assay (CellTiter-Glo, CTG), H1299 p53 Y220C (NClH1299-inducible p53 Y220C); assay type: cell-based; details: Homo sapiens, NCI-H1299, 120 h, CellTiter-Glo, 5 days
Method in brief: (§1)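 Cells seeded at 250-500 per well and exposed to compound for 5 days. Viability read by CellTiter-Glo luminescence after 10 min at room temperature; IC50 calculated. H1299 lines carry Tet-One inducible p53 mutant constructs introduced by lentiviral transduction.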

H1299 p53 R273H = experiment: Cell Proliferation Assay (CellTiter-Glo, CTG), H1299 p53 R273H (NClH1299-inducible p53 R273H); assay type: cell-based; details: Homo sapiens, NCI-H1299, 120 h, CellTiter-Glo, 5 days
Method in brief: as §1

[3] = SPR, kinetic KD, p53 Y220C, read-out: SPR P53 Y220C KD kinetic
[4] = thermal shift, read-out: TSA P53 Y220C dTM (10 uM)
[5] = thermal shift, read-out: TSA P53 Y220C dTM (100 uM)
[6] = luciferase reporter, NClH1299 inducible p53 Y220C, 6 hour, 10 uM tool compound as positive control
[7] = luciferase reporter, NClH1299 inducible p53 Y220C, 6 hour, read-out: Luc P53 Y220C AC50
[8] = read-out: SPR P53 Y220C KD kinetic
[9] = SPR, p53 Y220C, read-out: SPR P53 Y220C KD kinetic
[10] = p53 Y220C, read-out: TSA P53 Y220C dTM
[11] = AC50, luciferase reporter, NClH1299 inducible p53 Y220C, 6 hour, read-out: Luc P53 Y220C AC50
[12] = Emax, luciferase reporter, NClH1299 inducible p53 Y220C, 6 hour
[13] = NClH1299-inducible p53 Y220C cells
[14] = NClH1299-inducible p53 R273H cells

SMILES | Kd [1, 3] [nM] | ΔTm at 10 µM [2, 4] [°C] | ΔTm at 100 µM [2, 5] [°C] | Emax (p53 Y220C; [6]) [%] | AC50 (p53 Y220C; [7]) [nM] | IC50 (H1299 p53 Y220C; H1299 p53 Y220C) [nM] | IC50 (H1299 p53 R273H; H1299 p53 R273H) [nM] | Kd [1, 8] [nM] | Kd [1, 9] [nM] | ΔTm at 10 µM [2, 10] [°C] | ΔTm at 100 µM [2, 10] [°C] | AC50 (p53 Y220C; [11]) [nM] | Emax (p53 Y220C; [12]) [%] | IC50 (H1299 p53 Y220C; [13]) [nM] | IC50 (H1299 p53 R273H; [14]) [nM] | IC50 (NUGC3 p53 Y220C; NUGC3 p53 Y220C) [nM] | Kd [1] [nM] | AC50 (p53 Y220C) [nM] | IC50 (NUGC3 p53 Y220C; NUGC3 cells) [nM]
CNC(=O)c1ccc(NCC#Cc2cc3c(N[C@@H]4CCN(C)C[C@@H]4F)nccn3c2SC(F)F)c(OC)c1 [Example 196, 4-[(3-{6-[(difluoromethyl)sulfanyl]-1-{[(3S,4R)-3-fluoro-1-methylpiperidin-4-yl]amino}pyrrolo[1,2-a]pyrazin-7-yl}prop-2-yn-1-yl)amino]-3-methoxy-N-methylbenzamide; formic acid] | < 10 | ≥ 10 | ≥ 10 | > 90 | < 750 | < 750 | ≥ 10000 | – | – | – | – | – | – | – | – | < 750 | – | – | –
CNC(=O)c1ccc(NCC#Cc2nc3c(NCC4(F)CNC4)cccn3c2SC(F)(F)F)c(OC)c1 [Example 197] | 10 to 100 | 5 to 10 | ≥ 10 | 80 to 90 | > 3000 | > 3000 | ≥ 10000 | – | – | – | – | – | – | – | – | > 3000 | – | – | –
CNC(=O)c1ccc(OC)c(NCC#Cc2nc3c(N[C@@H]4C[C@H]5CC[C@@H]([C@@H]4F)N5C)cccn3c2SC(F)(F)F)c1 [Example 199] | < 10 | ≥ 10 | ≥ 10 | 70 to 80 | < 750 | < 750 | < 5000 | – | – | – | – | – | – | – | – | < 750 | – | – | –
CNC(=O)c1ccc(OC)c(NCC#Cc2nc3c(N[C@H]4C[C@@H]5CC[C@H]([C@H]4F)N5C)cccn3c2SC(F)(F)F)c1 [Example 200] | < 10 | ≥ 10 | ≥ 10 | 70 to 80 | < 750 | < 750 | ≥ 10000 | – | – | – | – | – | – | – | – | < 750 | – | – | –
CNC(=O)c1ccc(NCC#Cc2nc3c(N[C@H]4C[C@@H]5CC[C@@H](N5)[C@H]4F)cccn3c2SC(F)(F)F)c(OC)c1 [Example 201] | < 10 | ≥ 10 | ≥ 10 | 80 to 90 | < 750 | < 750 | 5000 to 8000 | – | – | – | – | – | – | – | – | < 750 | – | – | –
CNC(=O)c1ccc(OC)c(NCC#Cc2nc3c(N[C@@H]4C[C@H]5CC[C@H](N5)[C@@H]4F)cccn3c2SC(F)(F)F)c1 [Example 202] | < 10 | ≥ 10 | ≥ 10 | 70 to 80 | < 750 | < 750 | 8000 to 10000 | – | – | – | – | – | – | – | – | < 750 | – | – | –
CNC(=O)c1ccc(OC)c(NCC#Cc2nc3c(N[C@H]4C[C@@H]5CC[C@@H](N5)[C@H]4F)cccn3c2SC(F)(F)F)c1 [Example 203] | < 10 | ≥ 10 | ≥ 10 | 70 to 80 | < 750 | < 750 | 5000 to 8000 | – | – | – | – | – | – | – | – | < 750 | – | – | –
CNC(=O)c1ccc(OC)c(NCC#Cc2nc3c(NC4CC5(C4)CN(CC(F)F)C5)cccn3c2SC(F)(F)F)c1 [Example 204] | – | 5 to 10 | ≥ 10 | > 90 | – | 750 to 1500 | ≥ 10000 | – | – | – | – | – | – | – | – | 750 to 1500 | < 10 | 750 to 1500 | –
CNC(=O)c1ccc(NCC#Cc2nn3c(N[C@@H]4CCN(C)C[C@@H]4F)nccc3c2SC(F)F)c(OC)c1 [Example 215] | < 10 | ≥ 10 | – | > 90 | < 750 | < 750 | ≥ 10000 | – | – | – | – | – | – | – | – | < 750 | – | – | –
CNC(=O)c1ccc(OC)c(NCC#Cc2nc3c(N[C@@H]4CCNC[C@@H]4F)cccn3c2SC(F)(F)F)c1 [Example 218] | < 10 | ≥ 10 | ≥ 10 | 80 to 90 | < 750 | < 750 | ≥ 10000 | – | – | – | – | – | – | – | – | < 750 | – | – | –
CNC(=O)c1ccc(NCC#Cc2nn3c(N[C@@H]4CCN(C)C[C@@H]4F)cccc3c2SC(F)F)c(OC)c1 [Example 219, 4-[(3-{3-[(difluoromethyl)sulfanyl]-7-{[(3S,4R)-3-fluoro-1-methylpiperidin-4-yl]amino}pyrazolo[1,5-a]pyridin-2-yl}prop-2-yn-1-yl)amino]-3-methoxy-N-methylbenzamide] | < 10 | 5 to 10 | 5 to 10 | 80 to 90 | < 750 | < 750 | 5000 to 8000 | – | – | – | – | – | – | – | – | < 750 | – | – | –
CNC(=O)c1ccc(NCC#Cc2nn3c(N[C@@H]4CCN(C)C[C@@H]4F)cccc3c2SC(F)(F)F)c(OC)c1 [Example 223, 4-{[3-(7-{[(3S,4R)-3-fluoro-1-methylpiperidin-4-yl]amino}-3-[(trifluoromethyl)sulfanyl]pyrazolo[1,5-a]pyridin-2-yl)prop-2-yn-1-yl]amino}-3-methoxy-N-methylbenzamide] | – | – | – | – | – | – | – | – | < 10 | ≥ 10 | ≥ 10 | < 750 | 80 to 90 | < 750 | ≥ 10000 | – | – | – | < 750
CNC(=O)c1ccc(NCC#Cc2nc3c(NC4COC4)cccn3c2SC(F)(F)F)c(OC)c1 [Example 225] | – | – | – | – | – | – | – | – | 10 to 100 | 1 to 5 | 5 to 10 | 750 to 1500 | 80 to 90 | 750 to 1500 | ≥ 10000 | – | – | – | 1500 to 3000

Second part, led by results:

Kd [1, 3] [nM] | ΔTm at 10 µM [2, 4] [°C] | ΔTm at 100 µM [2, 5] [°C] | Emax (p53 Y220C; [6]) [%] | AC50 (p53 Y220C; [7]) [nM] | IC50 (H1299 p53 Y220C; H1299 p53 Y220C) [nM] | IC50 (H1299 p53 R273H; H1299 p53 R273H) [nM] | Kd [1, 8] [nM] | Kd [1, 9] [nM] | ΔTm at 10 µM [2, 10] [°C] | ΔTm at 100 µM [2, 10] [°C] | AC50 (p53 Y220C; [11]) [nM] | Emax (p53 Y220C; [12]) [%] | IC50 (H1299 p53 Y220C; [13]) [nM] | IC50 (H1299 p53 R273H; [14]) [nM] | SMILES | IC50 (NUGC3 p53 Y220C; NUGC3 p53 Y220C) [nM] | Kd [1] [nM] | AC50 (p53 Y220C) [nM] | IC50 (NUGC3 p53 Y220C; NUGC3 cells) [nM]
< 10 | ≥ 10 | ≥ 10 | > 90 | < 750 | < 750 | ≥ 10000 | – | – | – | – | – | – | – | – | CNC(=O)c1ccc(NCC#Cc2nc3c(N[C@@H]4CCN(C)C[C@@H]4F)nccn3c2SC(F)(F)F)c(OC)c1 [Example 206, 4-{[3-(8-{[(3S,4R)-3-fluoro-1-methylpiperidin-4-yl]amino}-3-[(trifluoromethyl)sulfanyl]imidazo[1,2-a]pyrazin-2-yl)prop-2-yn-1-yl]amino}-3-methoxy-N-methylbenzamide] | < 750 | – | – | –
< 10 | ≥ 10 | – | > 90 | < 750 | < 750 | ≥ 10000 | – | – | – | – | – | – | – | – | CNC(=O)c1ccc(OC)c(NCC#Cc2cc3c(N[C@@H]4CCN(C)C[C@@H]4F)nccn3c2SC(F)(F)F)n1 [Example 207] | < 750 | – | – | –
< 10 | ≥ 10 | – | 80 to 90 | < 750 | < 750 | ≥ 10000 | – | – | – | – | – | – | – | – | CNC(=O)c1ccc(OC)c(NCC#Cc2nc3c(N[C@@H]4CCN(C)C[C@@H]4F)nccn3c2SC(F)(F)F)c1 [Example 212] | < 750 | – | – | –
– | ≥ 10 | ≥ 10 | 70 to 80 | < 750 | < 750 | ≥ 10000 | < 10 | – | – | – | – | – | – | – | CNC(=O)c1ccc(OC)c(NCC#Cc2nc3c(N[C@@H]4CCN(C)C[C@@H]4F)cccn3c2CC(F)(F)F)n1 [Example 213] | < 750 | – | – | –
– | ≥ 10 | ≥ 10 | 70 to 80 | < 750 | < 750 | 5000 to 8000 | < 10 | – | – | – | – | – | – | – | CNC(=O)c1ccc(OC)c(NCC#Cc2nc3c(N[C@@H]4CCNC[C@@H]4F)cccn3c2SC(F)(F)F)n1 [Example 217] | < 750 | – | – | –
< 10 | ≥ 10 | ≥ 10 | < 70 | > 3000 | 1500 to 3000 | ≥ 10000 | – | – | – | – | – | – | – | – | CNC(=O)c1ccc(OC)c(NCC#Cc2nc3c(N[C@@H]4CCNC[C@@H]4F)cccn3c2CC(F)(F)F)c1 [Example 222] | < 750 | – | – | –
